Here are results for two compounds from patent publication US10849866B2, “Methods for inhibiting conversion of choline to trimethylamine (TMA)” (The Procter & Gamble Company, priority 2017, dated 2020).

In experiment [1] the target is T1, recombinant D. alaskensis Cut C/D lysate (Oleidesulfovibrio alaskensis, UniProt Q30W70).
T1 construct: made in house
T1 sequence (Q30W70 1-846): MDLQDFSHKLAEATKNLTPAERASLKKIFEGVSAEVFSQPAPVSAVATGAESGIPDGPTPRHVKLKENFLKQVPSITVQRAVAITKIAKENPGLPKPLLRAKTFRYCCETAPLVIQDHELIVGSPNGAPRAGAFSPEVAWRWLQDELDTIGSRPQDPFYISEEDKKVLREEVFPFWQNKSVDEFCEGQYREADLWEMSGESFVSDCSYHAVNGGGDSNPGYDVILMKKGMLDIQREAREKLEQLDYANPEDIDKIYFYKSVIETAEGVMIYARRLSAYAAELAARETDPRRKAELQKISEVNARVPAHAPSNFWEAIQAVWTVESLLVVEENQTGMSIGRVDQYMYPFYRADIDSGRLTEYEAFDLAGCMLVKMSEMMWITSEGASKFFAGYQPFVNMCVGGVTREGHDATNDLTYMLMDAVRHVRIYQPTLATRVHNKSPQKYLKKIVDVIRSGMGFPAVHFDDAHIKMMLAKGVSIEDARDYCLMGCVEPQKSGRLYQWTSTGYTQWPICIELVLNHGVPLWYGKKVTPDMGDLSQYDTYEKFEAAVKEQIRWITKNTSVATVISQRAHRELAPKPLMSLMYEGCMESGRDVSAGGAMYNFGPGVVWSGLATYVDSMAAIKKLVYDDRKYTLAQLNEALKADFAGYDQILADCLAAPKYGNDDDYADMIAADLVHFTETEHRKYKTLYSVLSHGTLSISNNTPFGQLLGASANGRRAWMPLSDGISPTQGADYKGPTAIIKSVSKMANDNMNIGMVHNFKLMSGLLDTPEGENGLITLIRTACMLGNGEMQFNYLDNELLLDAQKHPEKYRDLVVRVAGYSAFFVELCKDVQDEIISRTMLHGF
Put plainly: Inhibition of conversion of choline to TMA by recombinant D. alaskensis Cut C/D lysate (Example 5). In kind it is biochemical. How it is done: (§1) Briefly, efficacy was measured as IC50 (nM) by inhibition of conversion of choline to TMA metabolized by recombinant P. mirabilis Cut C/D lysate; recombinant D. alaskensis Cut C/D lysate, or whole cell wild-type P. mirabilis.

The test system of experiment [2] is conversion of choline to TMA. Nature of the experiment: Rapid preclinical method: d9-choline challenge in mice (Example 6). In kind it is in vivo, C57bl/6 female mice. The settings on record: oral gavage with 2 mg d9-Choline, plasma, Time 3 hr. How it is done: Challenge: C57bl/6 female mice (8 wk of age ˜20 g BW) were maintained in accordance with the NIH guidelines in a 12:12 hr light:dark cycle on normal chow diet were placed in a clean cage without food ˜1 hr prior to gavage. […] Food was returned after a 2 hr fast (1 hr after gavage administration). Blood (30 μL) was collected into a heparinized capillary tube at 2, 3 and 4 hours after gavage. Blood was kept at 4° C., then spun using a centrifuge (5 min in centrifuge designed to capillary tubes) to separate plasma and hematocrit within 4 hours after collection. Plasma samples were stored at −80° C. Concentration of d9 Choline, d9TMA and d9TMAO was measured by LC-MS/MS.
Flora Normalization: Twenty four hours post-gavage mice were placed in a clean cage and fecal material from conventional mice was spread in all the cages.

The test system of experiment [3] is Proteus mirabilis 29906 (Pm) lysate. Nature of the experiment: Inhibition of formation of TMA from choline in Proteus mirabilis lysate (Example 2). It is filed as biochemical. The settings on record: Pm lysate 1.5 mg/mL protein, 50 μM d9-choline chloride, 37° C., two hours; read-out: TMA Inhibition (IC50, mol/L).
Procedure: Choline chloride (CC) (1M stock) was added to reach a final concentration of 2.5 mM choline chloride. The mixture was mixed using a vortex mixer for approximately 15 seconds and incubated at 37° C. for 22 hours. After incubation, 150 μL of CC-treated Pm lysate was dispensed into a deep-well plate (polypropylene, 2 mL volume, Corning Axygen catalogue # P-DW-20-C). […] The plates were agitated on a plate shaker for 1 minute. d9-choline chloride (1.5 μL of 5 mM) was added to all wells to reach a final d9-choline chloride concentration of 50 μM.
The plates were again agitated on a plate shaker for 1 minute and incubated at 37° C. for two hours. After incubation, 1.5 μL of formic acid was added to each well (final concentration=1% formic acid). The plates were agitated on a plate shaker for 1 minute and placed on ice. Cell lysate samples were spiked with stable isotope labeled internal standard (22.5 μL of 6 μg/mL of 13C3-trimethylamine (13C3-TMA) was added to each sample), then d9-trimethylamine (d9-TMA), trimethylamine (TMA) and 13C3-TMA were isolated from the lysate after protein precipitation as described below. […] The supernatant was removed and analyzed as described below. […] The concentrations of TMA and d9-TMA in the cell lysate were determined by interpolation from the quadratic (1/×2) regression curve.
Experiment [4] addresses T2, recombinant P. mirabilis Cut C/D lysate (Proteus mirabilis, UniProt B4EYG1).
T2 sequence (B4EYG1 1-1142): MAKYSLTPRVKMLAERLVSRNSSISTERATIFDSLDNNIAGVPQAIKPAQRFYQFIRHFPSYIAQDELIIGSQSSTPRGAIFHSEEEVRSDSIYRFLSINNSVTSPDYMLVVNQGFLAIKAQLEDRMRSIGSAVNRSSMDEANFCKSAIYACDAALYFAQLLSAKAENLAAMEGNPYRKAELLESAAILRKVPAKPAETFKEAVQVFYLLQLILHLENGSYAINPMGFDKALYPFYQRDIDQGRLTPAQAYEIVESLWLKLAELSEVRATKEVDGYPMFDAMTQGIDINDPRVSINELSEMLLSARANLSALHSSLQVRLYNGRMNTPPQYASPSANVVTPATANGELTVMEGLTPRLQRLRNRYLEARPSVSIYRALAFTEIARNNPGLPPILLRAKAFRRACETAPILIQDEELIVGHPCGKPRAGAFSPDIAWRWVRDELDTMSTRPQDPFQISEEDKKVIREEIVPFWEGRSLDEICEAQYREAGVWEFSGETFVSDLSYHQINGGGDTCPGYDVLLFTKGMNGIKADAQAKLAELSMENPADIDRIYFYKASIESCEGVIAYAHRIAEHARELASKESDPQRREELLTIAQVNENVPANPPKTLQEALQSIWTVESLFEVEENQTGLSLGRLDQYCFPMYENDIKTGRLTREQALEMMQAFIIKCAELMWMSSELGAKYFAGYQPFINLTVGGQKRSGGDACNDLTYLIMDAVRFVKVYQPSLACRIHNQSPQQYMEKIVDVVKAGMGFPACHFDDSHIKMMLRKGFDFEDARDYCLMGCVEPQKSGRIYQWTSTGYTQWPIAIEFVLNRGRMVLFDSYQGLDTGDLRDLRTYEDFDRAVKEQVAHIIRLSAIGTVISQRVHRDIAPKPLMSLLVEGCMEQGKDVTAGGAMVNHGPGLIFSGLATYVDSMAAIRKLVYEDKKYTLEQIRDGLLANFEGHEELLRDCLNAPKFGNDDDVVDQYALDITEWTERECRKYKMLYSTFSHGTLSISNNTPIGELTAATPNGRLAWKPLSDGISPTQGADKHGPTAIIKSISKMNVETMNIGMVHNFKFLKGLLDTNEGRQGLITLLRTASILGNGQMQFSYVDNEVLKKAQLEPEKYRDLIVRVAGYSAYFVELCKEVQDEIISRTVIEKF
T2 sequence (B4EYG0 1-316 partner): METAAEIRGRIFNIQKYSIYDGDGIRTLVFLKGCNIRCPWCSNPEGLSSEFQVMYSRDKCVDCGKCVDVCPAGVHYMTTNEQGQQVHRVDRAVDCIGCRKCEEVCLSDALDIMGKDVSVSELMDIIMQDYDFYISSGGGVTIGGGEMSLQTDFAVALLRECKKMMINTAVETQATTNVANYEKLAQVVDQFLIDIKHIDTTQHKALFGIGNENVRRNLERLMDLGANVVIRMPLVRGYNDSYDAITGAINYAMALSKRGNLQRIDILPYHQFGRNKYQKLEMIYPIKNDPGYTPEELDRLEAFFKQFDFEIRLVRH
Put plainly: Inhibition of conversion of choline to TMA by recombinant P. mirabilis Cut C/D lysate (Example 5). In kind it is biochemical. How it is done:
as §1

For experiment [5], the system named is whole cell wild-type P. mirabilis. Put plainly: Inhibition of conversion of choline to TMA by whole cell wild-type P. mirabilis (Example 5). In kind it is cell-based. The settings on record: Proteus mirabilis. How it is done:
as §1

One may read the EC50 as the concentration at which the effect is half-maximal. Take `C[N+](C)(CI)CCF` [ID 2, 2-fluoro-N-(iodomethyl)-N,N-dimethylethan-1-aminium chloride]: the IC50 in experiment [1] came out at 150 nM; in experiment [3], 179 nM; in experiment [4] it was 240 nM. In addition, the “Calculated EC50 (mg/kg) compared to Vehicle Control” value in experiment [2] is listed as 15.40 mg/kg. Besides, the EC50 in experiment [5] was 67000 nM.
The matching figures for `C[N+](C)(CCl)CCF` [ID 1, N-(chloromethyl)-2-fluoro-N,N-dimethylethan-1-aminium chloride]: 760 nM, 270 nM, 690 nM, 3.10 mg/kg and 8700 nM.
